Legend:
[1] = biological target: T1, isolated PIN domain of hDIS3 (Homo sapiens, UniProt Q9Y2L1); assay: hDIS3 PIN domain endonucleolytic activity assay (RNA substrate digestion, denaturing PAGE, fluorimaging); assay type: biochemical; settings: 80 μM concentration; 5′ fluoresceine-labeled ss17-(A)34 substrate; 1 mM manganese
T1 construct: made in house
T1 sequence (Q9Y2L1 1-217): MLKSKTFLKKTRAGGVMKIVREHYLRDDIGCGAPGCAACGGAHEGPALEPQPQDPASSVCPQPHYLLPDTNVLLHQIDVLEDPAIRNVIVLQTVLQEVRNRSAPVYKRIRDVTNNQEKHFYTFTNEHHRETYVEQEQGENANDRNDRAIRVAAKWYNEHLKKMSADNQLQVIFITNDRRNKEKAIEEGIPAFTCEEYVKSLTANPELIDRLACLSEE
Method: FIGS. 11A-B. 2-hydroxy-(4H)-isoquinoline-1,3-dione (AClLAHYL) inhibits the endonucleolytic activity of isolated PIN domain of hDIS3. A) SDS-PAGE analysis of the recombinant hDIS3 PIN domain; B) Activity assay. 5′ fluoresceine-labeled ss17-(A)34 substrate was incubated in a buffer containing 1 mM manganese with recombinant hDIS3 PIN domain in the presence or absence of 2-hydroxy-(4H)-isoquinoline-1,3-dione. A control reaction was also performed, which contained the inhibitor but lacked any added protein. Reactions were terminated at the indicated time points, followed by denaturing PAGE and fluorimaging.
In vitro enzymatic assays of hDIS3 exoribonucleolytic activity were performed in 10 mM Tris-HCl, pH 8.0; 75 mM NaCl; 1 mM 2-mercaptoethanol, 100 μM MgCl2. Protein concentration was 0.1 μM, while substrate concentration was 0.2 μM or 2 μM for duplex and unstructured RNA molecules, respectively. For gel-based analyses, reactions were performed at 37° C. for the indicated times and then terminated by formamide loading dye Reaction products were resolved in denaturing 20% polyacrylamide, 8 M urea, 1xTBE gels. In the case of TLC-based experiment, samples were collected by mixing aliquots of the reaction mixtures with 1 μl of 0.5 M EDTA and subsequently analysed by running them on PEI-cellulose plates (Schleicher & Schuell) in 0.5 M LiCl/1M formic acid, using non-radioactive UMP as a marker. […]

[2] = system: yeast harboring R847K mutation (dis3-R847K); assay: Yeast growth assay, serial dilutions spotted on YPD plates; assay type: cell-based, S. cerevisiae; settings: 1 mM in YPD plates, 30° C., 60 hours
Method: (§1) FIG. 12. […] Serial dilutions of indicated yeast strains were spotted on YPD plates and YPD plates with 2-hydroxy-(4H)-isoquinoline-1,3-dione (at 1 mM concentration) and incubated at 30° C. for 60 hours.
(§2) Yeast strains described above were grown in complete YPD medium at 30° C. overnight until OD600 reached 0.2 before spotting serial dilutions onto YPD plates. Cell growth was analyzed after 60 h of incubation at 25° C., 30° C. or 37° C. Analysis of viability for strains harboring mutations in both PIN and RNB domains of Dis3 was carried out by sporulation of ADZY713 and ADZY716 diploid strains, followed by tetrad dissection.
(§3) Yeast strains harboring G833R or R847K mutations, obtained in Example II were used for growth assays. Serial dilutions of indicated yeast strains were spotted on YPD plates and YPD plates with 2-hydroxy-(4H)-isoquinoline-1,3-dione (at 1 mM concentration) and incubated at 30° C. for 60 hours.

[3] = system: yeast harboring G833R mutation (dis3-G833R); assay: as above; assay type: cell-based, S. cerevisiae; settings: 1 mM in YPD plates, 30° C., 60 hours
Method: as §1, §2, §3

O=C1Cc2ccccc2C(=O)N1O [2-hydroxy-(4H)-isoquinoline-1,3-dione]
inhibition of the endonucleolytic activity of human DIS3 PIN domain [1]: efficiently inhibited
growth inhibition of yeast harboring R847K mutation [2]: complete growth inhibition
growth inhibition of yeast harboring G833R mutation [3]: complete growth inhibition

Source: patent US9611514B2, “Method for selection of hDIS3 PIN domain inhibitors and use of hDIS3 PIN domain inhibitors for cancer treatment” (INSTYTUT BIOCHEMII I BIOFIZYKI POLSKIEJ AKADEMII NAUK, priority 2013, dated 2017)
